Literature values, collected in patent US20060154930A1, “Substituted amino heterocycles as vr-1 antagonists for treating pain” (priority 2003, published 2006).

Biological target: VR1 (Rattus norvegicus, UniProt O35433)
Conditions: Wahl et al., Mol. Pharmacol, 59:9, 2001

Sequence of VR1 (O35433 whole entry): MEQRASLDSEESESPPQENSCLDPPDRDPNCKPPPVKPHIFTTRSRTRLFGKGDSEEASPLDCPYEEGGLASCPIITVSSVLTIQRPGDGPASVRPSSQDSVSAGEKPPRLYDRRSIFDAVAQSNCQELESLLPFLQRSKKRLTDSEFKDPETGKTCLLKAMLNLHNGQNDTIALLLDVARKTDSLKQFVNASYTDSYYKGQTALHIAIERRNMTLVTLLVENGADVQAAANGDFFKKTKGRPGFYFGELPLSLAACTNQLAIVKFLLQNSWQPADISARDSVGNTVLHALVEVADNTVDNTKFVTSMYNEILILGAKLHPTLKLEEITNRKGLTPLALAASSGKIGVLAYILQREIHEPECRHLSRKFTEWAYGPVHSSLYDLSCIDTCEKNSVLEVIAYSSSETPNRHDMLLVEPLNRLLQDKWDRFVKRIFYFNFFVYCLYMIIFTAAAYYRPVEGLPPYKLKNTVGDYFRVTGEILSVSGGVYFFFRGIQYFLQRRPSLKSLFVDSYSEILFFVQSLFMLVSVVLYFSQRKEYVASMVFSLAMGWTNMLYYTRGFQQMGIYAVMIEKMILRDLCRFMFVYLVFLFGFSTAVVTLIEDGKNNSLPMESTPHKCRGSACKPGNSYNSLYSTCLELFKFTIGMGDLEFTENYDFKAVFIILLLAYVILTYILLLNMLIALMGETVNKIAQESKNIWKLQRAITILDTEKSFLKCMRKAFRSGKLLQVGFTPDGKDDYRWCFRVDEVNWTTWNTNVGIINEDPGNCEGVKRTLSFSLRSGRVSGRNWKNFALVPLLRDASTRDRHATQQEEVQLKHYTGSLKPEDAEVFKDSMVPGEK

## C=C(C)[C@]12C[C@@H](C)[C@@]34O[C@](Cc5ccccc5)(O[C@@H]1[C@@H]3C=C(COC(=O)Cc1cc(I)c(O)c(OC)c1)C[C@]1(O)C(=O)C(C)=C[C@@H]41)O2 [Iodo-resiniferatoxin]
  VR1 antagonist potency (in words): nanomolar antagonist
